Reference: patent US11776661B2, “Determination of MAPK-AP-1 pathway activity using unique combination of target genes” (InnoSIGN B.V., priority 2017, dated 2023)

Tests used:
[1] = test system: MAPK-AP-1 cellular signaling pathway; assay: MAPK-AP-1 pathway activity prediction (11 target gene shortlist) on GSE40117, hES-Hep cells; format: cell-based, Human; settings: 0.11 μM TPA vs control conditions
Description: (§1) Human embryonic stem cell derived hepatocyte like cells (hES-Hep) were treated with 0.11 μM TPA (group 2: all 3 samples are part of the calibration data set) and compared to control conditions (group 1). HepG2 (a human liver cancer cell line) were treated with 0.0001 μM TPA (group 4: 3 samples are part of the calibration data set) and compared to control conditions (group 3: 1 sample is part of the calibration data set). In the diagram, the vertical axis indicates the odds (on a log 2 scale) that the TF element is “present” resp. “absent”, which corresponds to the MAPK-AP-1 cellular signaling pathway being active resp. passive, wherein values above the horizontal axis correspond to the TF element being more likely “present”/active and values below the horizontal axis indicate that the odds that the TF element is “absent”/passive are larger than the odds that it is “present”/active.

[2] = test system: MAPK-AP-1 cellular signaling pathway; assay: MAPK-AP-1 pathway activity prediction (11 target gene shortlist) on E-MEXP-2573, K562 (erythroleukemia) cells; format: cell-based; settings: 100 nM TPA for a further 48 h
Description: RNA was extracted from K562 (erythroleukemia) cells after 24 h (groups 1 and 3) or cells were treated with 100 nM TPA for a further 48 h (groups 2 and 4). K562 were either transfected with a control empty vector (groups 1 and 2) or a BASP1-containing vector (groups 3 and 4). In the diagram, the vertical axis indicates the odds (on a log 2 scale) that the TF element is “present” resp. “absent”, which corresponds to the MAPK-AP-1 cellular signaling pathway being active resp. passive, wherein values above the horizontal axis correspond to the TF element being more likely “present”/active and values below the horizontal axis indicate that the odds that the TF element is “absent”/passive are larger than the odds that it is “present”/active.

[3] = test system: MAPK-AP-1 cellular signaling pathway; assay: MAPK-AP-1 pathway activity prediction (24 target genes list) on GSE45417, U937 (histiocytic lymphoma) cell line; format: cell-based; settings: U937, 100 nM TPA vs 0.1% DMSO
Description: The U937 (histiocytic lymphoma) cell line was treated with 0.1% DMSO as control vehicle (group 1: all 3 samples are part of the calibration data set; and group 3), or 100 nM TPA (group 2: all 3 samples are part of the calibration data set; and group 4). Additionally, ZXDC1 knockdown was induced using doxycycline (groups 3 and 4). In the diagram, the vertical axis indicates the odds (on a log 2 scale) that the TF element is “present” resp. “absent”, which corresponds to the MAPK-AP-1 cellular signaling pathway being active resp. passive, wherein values above the horizontal axis correspond to the TF element being more likely “present”/active and values below the horizontal axis indicate that the odds that the TF element is “absent”/passive are larger than the odds that it is “present”/active.

[4] = test system: MAPK-AP-1 cellular signaling pathway; assay: MAPK-AP-1 pathway activity prediction (24 target genes list) on E-MEXP-2213, K562 (erythroleukemia) cells; format: cell-based; settings: K562, 10 nM TPA vs not treated
Description: K562 (erythroleukemia) cells were either not treated (group 1) or treated with 10 nM TPA (group 2). In the diagram, the vertical axis indicates the odds (on a log 2 scale) that the TF element is “present” resp. “absent”, which corresponds to the MAPK-AP-1 cellular signaling pathway being active resp. passive, wherein values above the horizontal axis correspond to the TF element being more likely “present”/active and values below the horizontal axis indicate that the odds that the TF element is “absent”/passive are larger than the odds that it is “present”/active.

[5] = test system: MAPK-AP-1 cellular signaling pathway; assay: MAPK-AP-1 pathway activity prediction (11 target gene shortlist) on GSE40117, HepG2; format: cell-based, human; settings: HepG2, 0.0001 μM TPA vs control conditions
Description: as §1

[6] = test system: MAPK-AP-1 cellular signaling pathway; assay: MAPK-AP-1 pathway activity prediction (24 target genes list) on GSE66853, U937 cells; format: cell-based, human; settings: 50 ng/ml TPA for 24 h, compared to Ethanol
Description: U937 cells were treated with Ethanol as control vehicle (group 1: all 3 samples are part of the calibration data set; and group 3) or 50 ng/ml TPA (group 2: 1 sample is part of the calibration data set; and group 4) for 24 h. U937 cells were either transduced with an empty vector (groups 1 and 2) or with an EVI1 expression vector (groups 3 and 4). In the diagram, the vertical axis indicates the odds (on a log 2 scale) that the TF element is “present” resp. “absent”, which corresponds to the MAPK-AP-1 cellular signaling pathway being active resp. passive, wherein values above the horizontal axis correspond to the TF element being more likely “present”/active and values below the horizontal axis indicate that the odds that the TF element is “absent”/passive are larger than the odds that it is “present”/active. […] Although it is known that the FOS and JUN promoter region contains EVI1 binding sites it seems that this effect on AP-1 activity is very small compared to the addition of 50 ng/ml TPA.

[7] = test system: MAPK-AP-1 cellular signaling pathway; assay: MAPK-AP-1 pathway activity prediction (Bayesian network model, 24 target genes list) on GSE28878, HepG2 cell line; format: cell-based, human; settings: HepG2, 500 nM TPA, 12 h, 24 h, 48 h, vs DMSO control vehicle
Description: A HepG2 cell line was treated with DMSO as control vehicle (group 1: 12 h, all 3 samples are part of the calibration data set; group 3: 24 h, 2 samples are part of the calibration data set; group 5: 48 h, 1 sample is part of the calibration data set) or 500 nM TPA (group 2: 12 h, 1 sample is part of the calibration data set; group 4: 24 h, all 3 samples are part of the calibration data set; group 6: 48 h). In the diagram, the vertical axis indicates the odds (on a log 2 scale) that the TF element is “present” resp. “absent”, which corresponds to the MAPK-AP-1 cellular signaling pathway being active resp. passive, wherein values above the horizontal axis correspond to the TF element being more likely “present”/active and values below the horizontal axis indicate that the odds that the TF element is “absent”/passive are larger than the odds that it is “present”/active.

[8] = test system: MAPK-AP-1 cellular signaling pathway; assay: MAPK-AP-1 pathway activity prediction (11 target gene shortlist) on GSE58235, HepG2 (Human Hepatoma) cell line; format: cell-based; settings: compared to DMSO and Ethanol
Description: The HepG2 (Human Hepatoma) cell line was treated with 0.5% DMSO (group 1: all 3 samples are part of the calibration data set; group 4: 1 sample is part of the calibration data set), 0.5% Ethanol (groups 2 and 5) or 500 nM TPA (group 3: all 3 samples are part of the calibration data set; and group 6) for 24 hours (groups 1 to 3) or 48 hours (groups 4 to 6). In the diagram, the vertical axis indicates the odds (on a log 2 scale) that the TF element is “present” resp. “absent”, which corresponds to the MAPK-AP-1 cellular signaling pathway being active resp. passive, wherein values above the horizontal axis correspond to the TF element being more likely “present”/active and values below the horizontal axis indicate that the odds that the TF element is “absent”/passive are larger than the odds that it is “present”/active.

Measured: AP-1 activity (log2 odds that TF element is present) after exposure

CCCCCCCCCCCCCC(=O)O[C@@H]1[C@@H](C)[C@@]2(O)[C@@H](C=C(CO)C[C@]3(O)C(=O)C(C)=C[C@@H]23)[C@@H]2C(C)(C)[C@]12OC(C)=O [TPA, 12-O-Tetradecanoylphorbol-13-acetate]
large increase: [1] | [2]; K562 transfected with BASP1-containing vector | [2]; K562 transfected with control empty vector | [3]; ZXDC1 knockdown induced using doxycycline | [3]; without ZXDC1 knockdown | [4] | [5] | [6]; U937 transduced with EVI1 expression vector | [6]; U937 transduced with empty vector | [7] | [8]; HepG2, 500 nM TPA for 24 hours | [8]; HepG2, 500 nM TPA for 48 hours
